Experimental findings from EPA's aquatic toxicity sets are described below.

Molecules are shown by their SMILES.

The test system of the data set is Pimephales promelas. The experiment in a line: 96 h LC50 (-log10 mol/L); higher = more toxic.
As for `Fc1ccc(Oc2ccc(F)cc2)cc1`, the “96 h LC50 (-log10 mol/L)” value came out at 5.26.

Consider `Clc1cc(Cl)cc(C2(CC(Cl)(Cl)Cl)CO2)c1` (configuration not stated), for which the “96 h LC50 (-log10 mol/L)” value came out at 5.38.

`c1ccc(-c2cccc(-c3ccccc3)n2)cc1`: the “96 h LC50 (-log10 mol/L)” value stood at 6.04.

As for `OCCN1CCNCC1`, the “96 h LC50 (-log10 mol/L)” value turned out to be 1.31.

Regarding `CC(O)C#N` (configuration not stated), the “96 h LC50 (-log10 mol/L)” value turned out to be 4.9.

For `CCOP(=O)(OCC)OP(=O)(OCC)OCC`, the “96 h LC50 (-log10 mol/L)” value is 5.35.

Regarding `c1ccc(SSc2ccccc2)cc1`, the “96 h LC50 (-log10 mol/L)” value amounted to 6.3.

Take `CS(=O)(=O)Oc1ccc(Cl)cc1Cl`: the “96 h LC50 (-log10 mol/L)” value is 4.74.

As for `Clc1ccc(C(c2ccc(Cl)cc2)C(Cl)Cl)cc1`, the “96 h LC50 (-log10 mol/L)” value is 4.86.

With `OCC(F)(F)F`, the “96 h LC50 (-log10 mol/L)” value worked out at 2.92.

As to `OCCN(CCO)c1ccccc1`, the “96 h LC50 (-log10 mol/L)” value was 2.39.

As to `COc1cccc(OC)c1C`, the “96 h LC50 (-log10 mol/L)” value came to 3.88.

As for `Clc1cccc(C(Cl)(Cl)Cl)n1`, the “96 h LC50 (-log10 mol/L)” value turned out to be 4.37.

As to `C#CC(C)(O)c1ccccc1` (configuration not stated), the “96 h LC50 (-log10 mol/L)” value was 3.11.

For `COP(=S)(OC)Oc1ccc(Sc2ccc(OP(=S)(OC)OC)cc2)cc1`, the “96 h LC50 (-log10 mol/L)” value was determined as 4.14.

Consider `CNC(=O)ON=C(SC)C(=O)N(C)C`, for which the “96 h LC50 (-log10 mol/L)” value was 4.51.

Turning to `N#Cc1c(Cl)cccc1Cl`, the “96 h LC50 (-log10 mol/L)” value worked out at 4.42.

As for `Nc1ccc(O)c([N+](=O)[O-])c1`, the “96 h LC50 (-log10 mol/L)” value is 3.63.

For `CCCCCCCC/C=C\CCCCCCCC(=O)O`, the “96 h LC50 (-log10 mol/L)” value worked out at 3.14.

Consider `CCN(CC)C1CCCCC1`, for which the “96 h LC50 (-log10 mol/L)” value was 3.86.

For `CCN(CC)c1ccc(C=O)cc1`, the “96 h LC50 (-log10 mol/L)” value was found to be 3.87.

Take `O=P(c1ccccc1)(c1ccccc1)c1ccccc1`: the “96 h LC50 (-log10 mol/L)” value was 3.71.

On to `CC(C)[C@@H]1CC[C@@H](C)C[C@H]1O`, for which the “96 h LC50 (-log10 mol/L)” value came out at 3.92.

On to `Cc1ccccc1F`, for which the “96 h LC50 (-log10 mol/L)” value was 3.75.

For the molecule `BrC(Br)c1ccccc1C(Br)Br`, the “96 h LC50 (-log10 mol/L)” value came to 5.99.

As for `O=[N+]([O-])C(CO)(CO)CO`, the “96 h LC50 (-log10 mol/L)” value amounted to 2.73.

With `CCCCCCCCCCc1ccc(N)cc1`, the “96 h LC50 (-log10 mol/L)” value was 6.57.

For `NCCCN1CCN(CCCN)CC1`, the “96 h LC50 (-log10 mol/L)” value worked out at 1.81.

Turning to `CCCCN`, the “96 h LC50 (-log10 mol/L)” value is 2.44.

Regarding `CC1CNCC(C)O1` (configuration not stated), the “96 h LC50 (-log10 mol/L)” value amounted to 2.47.

Take `CCc1cccc(C)c1N(C(=O)CCl)C(C)COC` (configuration not stated): the “96 h LC50 (-log10 mol/L)” value came out at 4.54.

As for `ClCc1ccc(CCl)cc1`, the “96 h LC50 (-log10 mol/L)” value was found to be 6.65.

Regarding `CC(C)(C)CN`, the “96 h LC50 (-log10 mol/L)” value worked out at 2.26.

Take `ClC1(Cl)C2(Cl)C3(Cl)C4(Cl)C(Cl)(Cl)C5(Cl)C3(Cl)C1(Cl)C5(Cl)C24Cl` (configuration not stated): the “96 h LC50 (-log10 mol/L)” value stood at 3.62.

`Cc1c([N+](=O)[O-])ccc([N+](=O)[O-])c1N`: the “96 h LC50 (-log10 mol/L)” value was found to be 5.37.

As to `CC1(C)NC(=O)NC1=O`, the “96 h LC50 (-log10 mol/L)” value came to 0.89.

As for `Oc1cc(Cl)c(Cl)cc1O`, the “96 h LC50 (-log10 mol/L)” value was found to be 5.3.

Regarding `O=C1C2CC=CCC2C(=O)N1SC(Cl)(Cl)Cl` (configuration not stated), the “96 h LC50 (-log10 mol/L)” value amounted to 6.35.

With `CC(C)(c1cc(Cl)c(O)c(Cl)c1)c1cc(Cl)c(O)c(Cl)c1`, the “96 h LC50 (-log10 mol/L)” value is 5.44.

Take `C1OCOCO1`: the “96 h LC50 (-log10 mol/L)” value amounted to 1.18.

For `O=Cc1cc([N+](=O)[O-])ccc1Cl`, the “96 h LC50 (-log10 mol/L)” value was 4.67.

On to `CCOC(=O)C(C)Oc1ccc(Oc2nc3ccc(Cl)cc3o2)cc1` (configuration not stated), for which the “96 h LC50 (-log10 mol/L)” value is 4.71.

As for `Cc1ccc([N+](=O)[O-])c(N)c1[N+](=O)[O-]`, the “96 h LC50 (-log10 mol/L)” value came to 4.21.

Consider `Oc1c(Cl)cc(Cl)c(Cl)c1Cc1c(O)c(Cl)cc(Cl)c1Cl`, for which the “96 h LC50 (-log10 mol/L)” value worked out at 7.29.

In the case of `CCOP(=S)(Oc1ccc([N+](=O)[O-])cc1)c1ccccc1` (configuration not stated), the “96 h LC50 (-log10 mol/L)” value was found to be 6.21.

`ON=C1CCCCC1`: the “96 h LC50 (-log10 mol/L)” value turned out to be 2.74.

With `ClCCOCOCCCl`, the “96 h LC50 (-log10 mol/L)” value is 2.97.
